Measurements published in patent US20250346592A1 (Celgene Corporation, priority 2022, published 2025).

Columns and labels:
hPAD4 enzyme [1] = molecular target: T1, hPAD4 enzyme (Homo sapiens (Human), UniProt Q9UM07); test: RFMS2 assay (RapidFire mass spectrometry, TSTGGRQGSHH peptide substrate); assay type: biochemical; conditions: 35 nM recombinant human PAD4, 500 μM TSTGGRQGSHH peptide, 30 minutes at room temperature; read-out: RFMS 2 IC50
Outline: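 IC50 derived from RapidFire LC-MS/MS (positive ESI MRM) of substrate versus product after a 30 min room-temperature reaction stopped with 10% formic acid. Reaction contained 35 nM human PAD4, 500 μM peptide, 2 mM CaCl2, 5 mM DTT at pH 7.4, and compounds diluted 3-fold from 20 μM.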

hPAD4 enzyme [2] = molecular target: T1, hPAD4 enzyme; test: RFMS1 assay (RapidFire mass spectrometry, BAEE substrate); assay type: biochemical; conditions: 5 nM hPAD4, 250 μM BAEE, 30 min preincubation at 37° C., 90 min reaction; read-out: RFMS 1 IC50
Outline: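 hPAD4 (5 nM) preincubated 30 min at 37° C. with compound, then 250 μM BAEE for 90 min at 37° C. in pH 7.5 HEPES buffer with 50 μM calcium, 1 mM DTT, 5 μM TPEN. TCA quench, phenyl glyoxal derivatisation; citrulline product measured by RapidFire MS, normalised to internal standard; IC50 values.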

T1 sequence (Q9UM07 whole entry): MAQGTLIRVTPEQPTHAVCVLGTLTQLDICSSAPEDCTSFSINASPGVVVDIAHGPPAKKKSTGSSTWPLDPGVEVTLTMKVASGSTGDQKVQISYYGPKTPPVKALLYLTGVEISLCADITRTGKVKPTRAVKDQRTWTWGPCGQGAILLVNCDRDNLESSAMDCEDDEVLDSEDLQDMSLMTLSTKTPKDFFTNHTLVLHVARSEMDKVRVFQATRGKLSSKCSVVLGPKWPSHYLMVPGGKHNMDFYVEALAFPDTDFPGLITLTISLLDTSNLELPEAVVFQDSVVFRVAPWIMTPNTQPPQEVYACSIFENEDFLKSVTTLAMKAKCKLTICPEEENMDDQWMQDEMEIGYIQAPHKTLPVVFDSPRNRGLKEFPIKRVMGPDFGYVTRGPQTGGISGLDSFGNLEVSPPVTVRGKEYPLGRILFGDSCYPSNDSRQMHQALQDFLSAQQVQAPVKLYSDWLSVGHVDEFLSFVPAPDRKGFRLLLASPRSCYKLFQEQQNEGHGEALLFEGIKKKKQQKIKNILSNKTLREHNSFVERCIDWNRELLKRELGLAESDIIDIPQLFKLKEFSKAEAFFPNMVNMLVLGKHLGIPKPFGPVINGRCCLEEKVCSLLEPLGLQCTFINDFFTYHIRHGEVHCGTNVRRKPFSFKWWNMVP

Row | IC50 (hPAD4 enzyme [1]) [nM] | IC50 (hPAD4 enzyme [2]) [nM] | Compound
1 | 101 to 500 | 11 to 100 | Cc1cc(C(N)=O)c(F)cc1-c1ccc2cc(-c3nc4cc5c(cc4n3C)CCN(C[C@H](N)CF)C5=O)n(CC3CC3)c2n1 [Example 60, (S)-4-(2-(6-(2-amino-3-fluoropropyl)-1-methyl-5-oxo-5,6,7,8-tetrahydro-1H-imidazo[4,5-g]isoquinolin-2-yl)-1-(cyclopropylmethyl)-1H-pyrrolo[2,3-b]pyridin-6-yl)-2-fluoro-5-methylbenzamide]
2 | 101 to 500 | 101 to 500 | C[C@@H](N)CN1CCc2c(cc3nc(-c4cc5ccccc5n4CC4CC4)n(C)c3c2F)C1=O [Example 237, (R)-6-(2-aminopropyl)-2-(1-(cyclopropylmethyl)-1H-indol-2-yl)-9-fluoro-1-methyl-1,6,7,8-tetrahydro-5H-imidazo[4,5-g]isoquinolin-5-one]
3 | 11 to 100 | ≤ 10 | C[C@@H](COc1cccc2cc(-c3nc4cc5c(cc4n3C)CCN(C[C@H](N)CF)C5=O)n(CC3CC3)c12)n1ccnc1 [Example 212, 2-(7-((S)-2-(1H-imidazol-1-yl)propoxy)-1-(cyclopropylmethyl)-1H-indol-2-yl)-6-((S)-2-amino-3-fluoropropyl)-1-methyl-1,6,7,8-tetrahydro-5H-imidazo[4,5-g]isoquinolin-5-one]
4 | 101 to 500 | 11 to 100 | COc1cccc2cc(-c3nc4cc5c(cc4n3C)CCN(C[C@H](N)CF)C5=O)n(Cc3cc(C)no3)c12 [Example 113, (S)-6-(2-amino-3-fluoropropyl)-2-(7-methoxy-1-((3-methylisoxazol-5-yl)methyl)-1H-indol-2-yl)-1-methyl-1,6,7,8-tetrahydro-5H-imidazo[4,5-g]isoquinolin-5-one]
5 | 101 to 500 | 11 to 100 | COc1cccc2cc(-c3nc4cc5c(c(F)c4n3C)CCN(C[C@H](N)CF)C5=O)n(CC3CC3)c12 [Example 238, (S)-6-(2-amino-3-fluoropropyl)-2-(1-(cyclopropylmethyl)-7-methoxy-1H-indol-2-yl)-9-fluoro-1-methyl-1,6,7,8-tetrahydro-5H-imidazo[4,5-g]isoquinolin-5-one]
6 | 101 to 500 | 11 to 100 | C[C@@H](Cn1ccnc1)Oc1cccc2cc(-c3nc4cc5c(cc4n3C)CCN(C[C@H](N)CF)C5=O)n(CC3CC3)c12 [Example 222, 2-(7-(((S)-1-(1H-imidazol-1-yl)propan-2-yl)oxy)-1-(cyclopropylmethyl)-1H-indol-2-yl)-6-((S)-2-amino-3-fluoropropyl)-1-methyl-1,6,7,8-tetrahydro-5H-imidazo[4,5-g]isoquinolin-5-one]
7 | 11 to 100 | ≤ 10 | Cn1c(-c2cc3cccc(OCCn4cnnn4)c3n2CC2CC2)nc2cc3c(cc21)CCN(C[C@H](N)CF)C3=O [Example 186, (S)-2-(7-(2-(1H-tetrazol-1-yl)ethoxy)-1-(cyclopropylmethyl)-1H-indol-2-yl)-6-(2-amino-3-fluoropropyl)-1-methyl-1,6,7,8-tetrahydro-5H-imidazo[4,5-g]isoquinolin-5-one]
8 | 101 to 500 | 11 to 100 | COc1cccc2cc(-c3nc4cc5c(cc4n3C)CCN(C[C@H](N)CF)C5=O)n(Cc3ncco3)c12 [Example 119, (S)-6-(2-amino-3-fluoropropyl)-2-(7-methoxy-1-(oxazol-2-ylmethyl)-1H-indol-2-yl)-1-methyl-1,6,7,8-tetrahydro-5H-imidazo[4,5-g]isoquinolin-5-one]
9 | 101 to 500 | 11 to 100 | Cn1cncc1CCOc1cccc2cc(-c3nc4cc5c(cc4n3C)CCN(C[C@H](N)CF)C5=O)n(CC3CC3)c12 [Example 169, (S)-6-(2-amino-3-fluoropropyl)-2-(1-(cyclopropyl-methyl)-7-(2-(1-methyl-1H-imidazol-5-yl)ethoxy)-1H-indol-2-yl)-1-methyl-1,6,7,8-tetrahydro-5H-imidazo [4,5-g]isoquinolin-5-one]
10 | 11 to 100 | 11 to 100 | Cn1c(-c2cc3cccc(OCCn4cnnc4)c3n2CC2CC2)nc2cc3c(cc21)CCN(C[C@H](N)CF)C3=O [Example 210, (S)-2-(7-(2-(4H-1,2,4-triazol-4-yl)ethoxy)-1-(cyclopropyl-methyl)-1H-indol-2-yl)-6-(2-amino-3-fluoropropyl)-1-methyl-1,6,7,8-tetrahydro-5H-imidazo[4,5-g]isoquinolin-5-one]
11 | 11 to 100 | ≤ 10 | Cn1c(-c2cc3cccc(OC[C@@H]4CNC(=O)C4)c3n2CC2CC2)nc2cc3c(cc21)CCN(C[C@H](N)CF)C3=O [Example 190, 6-((S)-2-amino-3-fluoropropyl)-2-(1-(cyclopropylmethyl)-7-(((S)-5-oxopyrrolidin-3-yl)methoxy)-1H-indol-2-yl)-1-methyl-1,6,7,8-tetrahydro-5H-imidazo[4,5-g]isoquinolin-5-one]
12 | 101 to 500 | 101 to 500 | C[C@@H](N)CN1CCc2cc3c(cc2C1=O)nc(-c1cc2ccccc2n1CC1CC1)n3C [Example 5, (R)-6-(2-aminopropyl)-2-(1-(cyclopropylmethyl)-1H-indol-2-yl)-1-methyl-1,6,7,8-tetrahydro-5H-imidazo[4,5-g]isoquinolin-5-one]
13 | 101 to 500 | 501 to 1000 | CN[C@H](C)CN1CCc2cc3c(cc2C1=O)nc(-c1cc2cccc(OCC4CNC(=O)C4)c2n1CC1CC1)n3C (stereo partly drawn) [Example 229, 2-(1-(cyclopropylmethyl)-7-((5-oxopyrrolidin-3-yl)methoxy)-1H-indol-2-yl)-1-methyl-6-((R)-2-(methylamino)propyl)-1,6,7,8-tetrahydro-5H-imidazo[4,5-g]isoquinolin-5-one]
14 | 101 to 500 | 101 to 500 | Cn1c(-c2cc3ccccc3n2CC2CC2)nc2cc3c(cc21)CCN(C[C@H](N)C1CC1)C3=O [Example 10, (R)-6-(2-amino-2-cyclopropylethyl)-2-(1-(cyclopropylmethyl)-1H-indol-2-yl)-1-methyl-1,6,7,8-tetrahydro-5H-imidazo[4,5-g]isoquinolin-5-one]
15 | 11 to 100 | ≤ 10 | Cn1c(-c2cc3cccc(OCCn4ccnc4)c3n2CC2CC2)nc2cc3c(cc21)CCN(C[C@H](N)CF)C3=O [Example 198, (S)-2-(7-(2-(1H-imidazol-1-yl)ethoxy)-1-(cyclopropylmethyl)-1H-indol-2-yl)-6-(2-amino-3-fluoropropyl)-1-methyl-1,6,7,8-tetrahydro-5H-imidazo[4,5-g]isoquinolin-5-one]
16 | 101 to 500 | ≤ 10 | COC(=O)N(C)CCOc1cccc2cc(-c3nc4cc5c(cc4n3C)CCN(C[C@H](N)CF)C5=O)n(CC3CC3)c12 [Example 201, methyl (S)-(2-((2-(6-(2-amino-3-fluoropropyl)-1-methyl-5-oxo-5,6,7,8-tetrahydro-1H-imidazo[4,5-g]isoquinolin-2-yl)-1-(cyclopropylmethyl)-1H-indol-7-yl)oxy)ethyl)(methyl) carbamate]
17 | 101 to 500 | 11 to 100 | Cn1c(-c2cc3cccc(OCCO)c3n2CC2CC2)nc2cc3c(cc21)CCN(C[C@H](N)CF)C3=O [Example 205, (S)-6-(2-amino-3-fluoropropyl)-2-(1-(cyclopropylmethyl)-7-(2-hydroxyethoxy)-1H-indol-2-yl)-1-methyl-1,6,7,8-tetrahydro-5H-imidazo[4,5-g]isoquinolin-5-one]
18 | 11 to 100 | ≤ 10 | Cn1c(-c2cc3cccc(OCCc4c[nH]nn4)c3n2CC2CC2)nc2cc3c(cc21)CCN(C[C@H](N)CF)C3=O [Example 199, (S)-2-(7-(2-(1H-1,2,3-triazol-4-yl)ethoxy)-1-(cyclopropyl-methyl)-1H-indol-2-yl)-6-(2-amino-3-fluoropropyl)-1-methyl-1,6,7,8-tetrahydro-5H-imidazo[4,5-g]isoquinolin-5-one]
19 | 101 to 500 | 11 to 100 | COC(=O)NCCOc1cccc2cc(-c3nc4cc5c(cc4n3C)CCN(C[C@H](N)CF)C5=O)n(CC3CC3)c12 [Example 207, methyl (S)-(2-((2-(6-(2-amino-3-fluoropropyl)-1-methyl-5-oxo-5,6,7,8-tetrahydro-1H-imidazo[4,5-g]isoquinolin-2-yl)-1-(cyclopropylmethyl)-1H-indol-7-yl)oxy)ethyl)carbamate]
20 | 101 to 500 | 101 to 500 | COCCn1c(-c2nc3cc4c(cc3n2C)CCN(C[C@H](N)CF)C4=O)cc2cccc(OC)c21 [Example 102, (S)-6-(2-amino-3-fluoropropyl)-2-(7-methoxy-1-(2-methoxyethyl)-1H-indol-2-yl)-1-methyl-1,6,7,8-tetrahydro-5H-imidazo[4,5-g]isoquinolin-5-one]
21 | 101 to 500 | 501 to 1000 | CC[C@@H](N)CN1CCc2cc3c(cc2C1=O)nc(-c1cc2ccccc2n1CC1CC1)n3C [Example 9, (R)-6-(2-aminobutyl)-2-(1-(cyclopropylmethyl)-1H-indol-2-yl)-1-methyl-1,6,7,8-tetrahydro-5H-imidazo[4,5-g]isoquinolin-5-one]
22 | 101 to 500 | 101 to 500 | Cn1c(-c2cc3ccccc3n2CC2CC2)nc2cc3c(cc21)CCN(C[C@H](N)CF)C3=O [Example 12, (S)-6-(2-amino-3-fluoropropyl)-2-(1-(cyclopropylmethyl)-1H-indol-2-yl)-1-methyl-1,6,7,8-tetrahydro-5H-imidazo[4,5-g]isoquinolin-5-one]
23 | 501 to 1000 | 11 to 100 | Cn1c(-c2cc3cccc(OCCn4cnnc4)c3n2CC2CC2)nc2cc3c(cc21)CCN(C[C@H]1COCCN1)C3=O [Example 234, 2-[1-(cyclopropylmethyl)-7-[2-(1,2,4-triazol-4-yl)ethoxy]indol-2-yl]-1-methyl-6-[[(3S)-morpholin-3-yl]methyl]-7,8-dihydroimidazo[4,5-g]isoquinolin-5-one]
